≈ marks a conversion by molar mass, not a printed value.
Assays:
[1] = tested on: intracellular S. aureus NRS384 in THP-1 macrophages; assay: Intracellular killing assay 2 (rifamycin analogs, S. aureus in THP-1 macrophages); assay type: cell-based, Staphylococcus aureus; conditions: lowest concentration giving intracellular S. aureus below limit of detection (50 cfu/mL) in THP-1 macrophages, median of at least two experiments; for MIC: Staphylococcus aureus, NRS384, 2 h, read-out: S. aureus Intracellular killing MIC
Method: THP-1 monocytic cell line was grown in media (RMPI+10% FBS+1% Penicillin/Streptomycin), then seeded at a density of 1e5 cells/well in a 96 well plate and differentiated into macrophages for three days prior to infection using 200 nM PMA. An overnight culture of S. aureus NRS384 was grown in RPMI, washed twice with PBS and resuspended at 1e7 cfu/mL in PBS. THP-1 were washed with warm media (RMPI without FBS) to remove the Penicillin/Streptomycin and then infected with the S. aureus suspension at a multiplicity of infection of 10:1 (S. aureus: macrophages). Plates were spun at 300×g for 5 minutes to synchronize adhesion of the bacteria, then incubated at 37° C. for 2 hours. Free-floating bacteria were removed by washing 2× with warm media and remaining extracellular S. aureus were killed by addition of media containing gentamicin (50 ug/mL). […] The compounds were added in media containing 50 µg/mL gentamicin to prevent extracellular growth of S. aureus. After 2 hours, plates were washed 2× with warm RPMI without FBS, and 100 ul of THP-1 lysis buffer (0.1% Triton in PBS) was added to each well. S. aureus survival was enumerated by colony forming units through serial dilution and plating onto TSA.
The intracellular MIC value indicated represents the median value of at least two independent experiments, unless indicated otherwise.

S. aureus NRS384 = assay: Broth minimum inhibitory concentration (MIC) assay 2; assay type: cell-based, Staphylococcus aureus; conditions: S. aureus NRS384 in TSB, 24 hours at 37° C., OD600, median of at least two independent experiments; for MIC: Staphylococcus aureus, read-out: S. aureus Broth MIC
Method: To test the potency of rifamycin analogs of the disclosure in vitro, a broth growth inhibition assay was developed. For the assay, S. aureus NRS384 was grown in Tryptic Soy Broth (TSB) overnight, then sub-cultured 1:50 in fresh TSB and grown for an additional two hours. The culture was then pelleted via centrifugation and washed twice in PBS. The culture was then diluted to 1×10^6 cfu/mL in TSB and 100 μL of the suspension was added per well to a 2 mL dilution plate in triplicate. […] The plates were sealed and incubated at 37° C. with shaking for 24 hours, then 150 μL of each sample was added to 96 well microtiter plates and the OD600 nm was read on a Spectramax i3 Minimax 300.
The broth MIC experiments were assessed in at least two independent experiments and the median value is captured below unless indicated otherwise.

## CO[C@H]1/C=C/O[C@@]2(C)Oc3c(C)c(O)c4c(=O)c(c5oc6cc(OCCN(C)c7ccccn7)ccc6nc-5c4c3C2=O)NC(=O)/C(C)=C\C=C\[C@H](C)[C@H](O)[C@@H](C)[C@@H](O)[C@@H](C)[C@H](OC(C)=O)[C@@H]1C [Analog 16v]
[1]
  MIC: 1 µM (≈ 0.935 µg/mL)
S. aureus NRS384
  MIC: 0.0625 µM (≈ 0.0584 µg/mL)

## CO[C@H]1/C=C/O[C@@]2(C)Oc3c(C)c(O)c4c(=O)c(c5oc6cc(OCCN7CC8CCC7C8)cc(O)c6nc-5c4c3C2=O)NC(=O)/C(C)=C\C=C\[C@H](C)[C@H](O)[C@@H](C)[C@@H](O)[C@@H](C)[C@H](OC(C)=O)[C@@H]1C [Analog 29d]
[1]
  MIC: 0.04 µM (≈ 0.0376 µg/mL)
S. aureus NRS384
  MIC: 0.00391 µM (≈ 0.00368 µg/mL)

## CO[C@H]1/C=C/O[C@@]2(C)Oc3c(C)c(O)c4c(=O)c(c5oc6cc(O)cc(F)c6nc-5c4c3C2=O)NC(=O)/C(C)=C\C=C\[C@H](C)[C@H](O)[C@@H](C)[C@@H](O)[C@@H](C)[C@H](OC(C)=O)[C@@H]1C [Analog 55a]
[1]
  MIC: > 1 µM
S. aureus NRS384
  MIC: 0.0625 µM (≈ 0.0512 µg/mL)

## CO[C@H]1/C=C/O[C@@]2(C)Oc3c(C)c(O)c4c(=O)c(c5oc6cc(F)ccc6nc-5c4c3C2=O)NCC(=O)/C(C)=C\C=C\[C@H](C)[C@H](O)[C@@H](C)[C@@H](O)[C@@H](C)[C@H](O)[C@@H]1C [Analog P2]
[1]
  S. aureus Intracellular killing MIC: >1 µM
S. aureus NRS384
  S. aureus Broth MIC: 0.0625 µM

## CO[C@H]1/C=C/O[C@@]2(C)Oc3c(C)c(O)c4c(=O)c(c5oc6cc(C#CCN(C)C)ccc6nc-5c4c3C2=O)NC(=O)/C(C)=C\C=C\[C@H](C)[C@H](O)[C@@H](C)[C@@H](O)[C@@H](C)[C@H](OC(C)=O)[C@@H]1C [Analog 72]
[1]
  MIC: > 1 µM
S. aureus NRS384
  MIC: 0.0625 µM (≈ 0.0541 µg/mL)

## CO[C@H]1/C=C/O[C@@]2(C)Oc3c(C)c(O)c4c(=O)c(c5oc6cc(OCCN(C)C)cc(Cl)c6nc-5c4c3C2=O)NC(=O)/C(C)=C\C=C\[C@H](C)[C@H](O)[C@@H](C)[C@@H](O)[C@@H](C)[C@H](OC(C)=O)[C@@H]1C [Analog 45]
[1]
  MIC: 1 µM (≈ 0.906 µg/mL)
S. aureus NRS384
  MIC: 0.00391 µM (≈ 0.00354 µg/mL)

## CO[C@H]1/C=C/O[C@@]2(C)Oc3c(C)c(O)c4c(=O)c(c5oc6cc(OCCN7CCC7)ccc6nc-5c4c3C2=O)NC(=O)/C(C)=C\C=C\[C@H](C)[C@H](O)[C@@H](C)[C@@H](O)[C@@H](C)[C@H](OC(C)=O)[C@@H]1C [Analog 16z-1]
[1]
  MIC: 1 µM (≈ 0.884 µg/mL)
S. aureus NRS384
  MIC: 0.00391 µM (≈ 0.00346 µg/mL)

## CO[C@H]1/C=C/O[C@@]2(C)Oc3c(C)c(O)c4c(=O)c(c5oc6cccc(OCCN(C)C)c6nc-5c4c3C2=O)NC(=O)/C(C)=C\C=C\[C@H](C)[C@H](O)[C@@H](C)[C@@H](O)[C@@H](C)[C@H](OC(C)=O)[C@@H]1C [Analog 71]
[1]
  MIC: > 1 µM
S. aureus NRS384
  MIC: 0.0156 µM (≈ 0.0136 µg/mL)

## CO[C@H]1/C=C/O[C@@]2(C)Oc3c(C)c(O)c4c(=O)c(c5oc6cc(OCCn7ccnc7)ccc6nc-5c4c3C2=O)NC(=O)/C(C)=C\C=C\[C@H](C)[C@H](O)[C@@H](C)[C@@H](O)[C@@H](C)[C@H](OC(C)=O)[C@@H]1C [Analog 16y]
[1]
  MIC: > 1 µM
S. aureus NRS384
  MIC: 0.0156 µM (≈ 0.014 µg/mL)

## CO[C@H]1/C=C/O[C@@]2(C)Oc3c(C)c(O)c4c(=O)c(c5oc6cc(O)cc(O)c6nc-5c4c3C2=O)NC(=O)/C(C)=C\C=C\[C@H](C)[C@H](O)[C@@H](C)[C@@H](O)[C@@H](C)[C@H](OC(C)=O)[C@@H]1C [Analog 29k]
[1]
  MIC: > 1 µM
S. aureus NRS384
  MIC: 0.0625 µM (≈ 0.0511 µg/mL)

## CO[C@H]1/C=C/O[C@@]2(C)Oc3c(C)c(O)c4c(=O)c(c5oc6cc(OCCN(C)C(C)=O)cc(O)c6nc-5c4c3C2=O)NC(=O)/C(C)=C\C=C\[C@H](C)[C@H](O)[C@@H](C)[C@@H](O)[C@@H](C)[C@H](OC(C)=O)[C@@H]1C [Analog 29j]
[1]
  MIC: 0.04 µM (≈ 0.0366 µg/mL)
S. aureus NRS384
  MIC: 0.000977 µM (≈ 0.000895 µg/mL)

## CO[C@H]1/C=C/O[C@@]2(C)Oc3c(C)c(O)c4c(=O)c(c5oc6ccc(OCCN(C)C)cc6nc-5c4c3C2=O)NC(=O)/C(C)=C\C=C\[C@H](C)[C@H](O)[C@@H](C)[C@@H](O)[C@@H](C)[C@H](OC(C)=O)[C@@H]1C [Analog 38]
[1]
  MIC: 1 µM (≈ 0.872 µg/mL)
S. aureus NRS384
  MIC: 0.0625 µM (≈ 0.0545 µg/mL)

## CCN(CC)CCOc1ccc2nc3c4c5c6c(C)c(O)c4c(=O)c(c-3oc2c1)NC(=O)/C(C)=C\C=C\[C@H](C)[C@H](O)[C@@H](C)[C@@H](O)[C@@H](C)[C@H](OC(C)=O)[C@H](C)[C@@H](OC)/C=C/O[C@@](C)(O6)C5=O [Analog 16t]
[1]
  MIC: 1 µM (≈ 0.9 µg/mL)
S. aureus NRS384
  MIC: 0.0625 µM (≈ 0.0563 µg/mL)

## CO[C@H]1/C=C/O[C@@]2(C)Oc3c(C)c(O)c4c(=O)c(c5oc6cc(OCC7CCN(C)C7)ccc6nc-5c4c3C2=O)NC(=O)/C(C)=C\C=C\[C@H](C)[C@H](O)[C@@H](C)[C@@H](O)[C@@H](C)[C@H](OC(C)=O)[C@@H]1C (stereo partly shown) [Analog 16j]
[1]
  MIC: 1 µM (≈ 0.898 µg/mL)
S. aureus NRS384
  MIC: 0.0625 µM (≈ 0.0561 µg/mL)

## CO[C@H]1/C=C/O[C@@]2(C)Oc3c(C)c(O)c4c(=O)c(c5oc6cc(OCCN7CCCCC7)ccc6nc-5c4c3C2=O)NC(=O)/C(C)=C\C=C\[C@H](C)[C@H](O)[C@@H](C)[C@@H](O)[C@@H](C)[C@H](OC(C)=O)[C@@H]1C [Analog 16m]
[1]
  MIC: 1 µM (≈ 0.912 µg/mL)
S. aureus NRS384
  MIC: 0.00391 µM (≈ 0.00357 µg/mL)

## CO[C@H]1/C=C/O[C@@]2(C)Oc3c(C)c(O)c4c(=O)c(c5oc6cc(OCCN(C)C)cc(SC)c6nc-5c4c3C2=O)NC(=O)/C(C)=C\C=C\[C@H](C)[C@H](O)[C@@H](C)[C@@H](O)[C@@H](C)[C@H](OC(C)=O)[C@@H]1C [Analog 60]
[1]
  MIC: 0.2 µM (≈ 0.184 µg/mL)
S. aureus NRS384
  MIC: 0.00391 µM (≈ 0.00359 µg/mL)

## CO[C@H]1/C=C/O[C@@]2(C)Oc3c(C)c(O)c4c(=O)c(c5oc6cc(OCCN(C(C)C)C(C)C)ccc6nc-5c4c3C2=O)NC(=O)/C(C)=C\C=C\[C@H](C)[C@H](O)[C@@H](C)[C@@H](O)[C@@H](C)[C@H](OC(C)=O)[C@@H]1C [Analog 16u]
[1]
  MIC: 1 µM (≈ 0.928 µg/mL)
S. aureus NRS384
  MIC: 1 µM (≈ 0.928 µg/mL)

## CO[C@H]1/C=C/O[C@@]2(C)Oc3c(C)c(O)c4c(=O)c(c5oc6cc(OC7CCN(C)CC7)cc(O)c6nc-5c4c3C2=O)NC(=O)/C(C)=C\C=C\[C@H](C)[C@H](O)[C@@H](C)[C@@H](O)[C@@H](C)[C@H](OC(C)=O)[C@@H]1C [Analog 68]
[1]
  MIC: 0.2 µM (≈ 0.183 µg/mL)
S. aureus NRS384
  MIC: 0.0156 µM (≈ 0.0143 µg/mL)

## CO[C@H]1/C=C/O[C@@]2(C)Oc3c(C)c(O)c4c(=O)c(c5oc6cc(CCCN(C)C)ccc6nc-5c4c3C2=O)NC(=O)/C(C)=C\C=C\[C@H](C)[C@H](O)[C@@H](C)[C@@H](O)[C@@H](C)[C@H](OC(C)=O)[C@@H]1C [Analog 75]
[1]
  MIC: > 1 µM
S. aureus NRS384
  MIC: 0.29 µM (≈ 0.252 µg/mL)

## CO[C@H]1/C=C/O[C@@]2(C)Oc3c(C)c(O)c4c(=O)c(c5oc6cc(OCCN(C)C)c(Cl)cc6nc-5c4c3C2=O)NC(=O)/C(C)=C\C=C\[C@H](C)[C@H](O)[C@@H](C)[C@@H](O)[C@@H](C)[C@H](OC(C)=O)[C@@H]1C [Analog 48]
[1]
  MIC: 1 µM (≈ 0.906 µg/mL)
S. aureus NRS384
  MIC: 0.0156 µM (≈ 0.0141 µg/mL)

## CO[C@H]1/C=C/O[C@@]2(C)Oc3c(C)c(O)c4c(=O)c(c5oc6cc(OCCN7CCN(C)CC7)ccc6nc-5c4c3C2=O)NC(=O)/C(C)=C\C=C\[C@H](C)[C@H](O)[C@@H](C)[C@@H](O)[C@@H](C)[C@H](OC(C)=O)[C@@H]1C [Analog 16h]
[1]
  MIC: 1 µM (≈ 0.927 µg/mL)
S. aureus NRS384
  MIC: 0.0156 µM (≈ 0.0145 µg/mL)

## CO[C@H]1/C=C/O[C@@]2(C)Oc3c(C)c(O)c4c(=O)c(c5oc6cc(OCCOCCN(C)C)ccc6nc-5c4c3C2=O)NC(=O)/C(C)=C\C=C\[C@H](C)[C@H](O)[C@@H](C)[C@@H](O)[C@@H](C)[C@H](OC(C)=O)[C@@H]1C [Analog 16s]
[1]
  MIC: 1 µM (≈ 0.916 µg/mL)
S. aureus NRS384
  MIC: 0.0625 µM (≈ 0.0573 µg/mL)

## CCCCOc1cc(OCCN(C)C)cc2oc3c4c(=O)c5c(O)c(C)c6c(c5c-3nc12)C(=O)[C@@](C)(O/C=C/[C@H](OC)[C@@H](C)[C@@H](OC(C)=O)[C@H](C)[C@H](O)[C@H](C)[C@@H](O)[C@@H](C)/C=C/C=C(/C)C(=O)N4)O6 [Analog 50]
[1]
  MIC: 1 µM (≈ 0.944 µg/mL)
S. aureus NRS384
  MIC: 0.0156 µM (≈ 0.0147 µg/mL)

From patent publication US11666658B2, “Rifamycin analogs and antibody-drug conjugates thereof” (Regeneron Pharmaceuticals, Inc., priority 2018, dated 2023)
